Measured values as given in patent US20080269298A1, “Benzimidazol-1-YL-thiophene compounds for the treatment of cancer” (priority 2002, published 2008).

Key:
PLK1 kinase domain = biological target: T1, PLK1 kinase domain (Homo sapiens, UniProt P53350); experiment: Assay for Inhibition of PLK1 (SPA enzyme activity); format: biochemical; settings: 2 μM ATP, read-out: Ave pIC50 PLK Enzyme Inhibition (converted)
T1 construct: made in house; host or cells: baculovirus-infected T. ni insect cells
Method: All procedures were performed at 4° C. Cells were lysed in so mM HEPES, 200 mM NaCl, so mM imidazole, 5% glycerol; pH 7.5. The homogenate was centrifuged at 14K rpm in a SLA-1500 rotor for 1 hr and the supernatant filtered through a 1.2 micron filter. The supernatant was loaded onto a Nickel chelating Sepharose (Amersham Pharmacia) column and washed with lysis buffer. Protein was eluted using 20%, 30% and 100% buffer B steps where buffer B is 50 mM HEPES, 200 mM NaCl, 300 mM imidazole, 5% glycerol; pH 7.5. Fractions containing PLK were determined by SDS-PAGE. Fractions containing PLK were diluted five-fold with so mM HEPES, 1 mM DTT, 5% glycerol; pH 7.5, then loaded on an SP Sepharose (Amersham Pharmacia) column. After washing the column with so mM HEPES, 1 mM DTT, 5% glycerol; pH 7.5, PLK was step eluted with so mM HEPES, 1 mM DTT, 500 mM NaCl; 5% glycerol; pH 7.5. PLK was concentrated using a 10 kDa molecular weight cutoff membrane and then loaded onto a Superdex 200 gel filtration (Amersham Pharmacia) column equilibrated in 25 mM HEPES, 1 mM DTT, 500 mM NaCl, 5% glycerol; pH 7.5. Fractions containing PLK were determined by SDS-PAGE. PLK was pooled, aliquoted and stored at −80° C. Samples were quality controlled using mass spectrometry, N-terminal sequencing and amino acid analysis.
B. Enzyme activity+/−inhibitors was determined as follows:
Compounds were added to the plate (1 μl in […]). […] Reaction Mix B is prepared as follows at 4° C.: • Reaction Mix B (Enzyme Mix) • 25 mM HEPES, pH 7.2 • 15 mM MgCl2 • 0.15 mg/ml BSA • 2 mM DTT • 2-10 nM PLK1 kinase domain
Reaction Mix A (20 μl) is added per well. Reaction Mix B (20 μl) is added per well. Incubate 1.5 hrs. at RT. The enzymatic reaction is stopped with 175 μl of SPA/EDTA bead mix (29 mM EDTA, 2.5 mg/ml Streptavidin-coated SPA in Standard Dulbecco's PBS (without Mg^2+ and Ca^2+), 60 μM ATP). Plates are sealed spun (after a 1 hr incubation at RT) at 1,000×g for 7 min or settled overnight, then plates counted in Packard TopCount for 30 seconds/well.

[1] = tested on: lung (H460) tumor cell line; experiment: Methylene Blue Growth Inhibition Assay, H460; format: cell-based; settings: Homo sapiens, NCI-H460, 72 h; Cell Line H460, 3 days; read-out: MeB IC50
Method: (§1) Normal Human foreskin fibroblasts (HFF) and human colon (HCT116, RKO), lung (H460), prostate (PC3), and breast tumor (MCF7) cell lines were cultured in high glucose DMEM (Life Technologies) containing 10% fetal bovine serum (FBS) at 37° C. in a humidified 10% CO2, 90% air incubator. Cells were harvested using trypsin/EDTA, counted using a haemocytometer, and plated in 100 μl of the appropriate media, at the following densities, in a 96-well tissue culture plate (Falcon 3075): HFF 5,000 cells/well, HCT116 3,000 cells/well, RKO 2,500 cells/well, H460 2,000 cells/well, PC3 8,000 cells/well, MCF7 4,000 cells/well. The next day, compounds were diluted in DMEM containing 100 μg/ml gentamicin, at twice the final required concentration, from 10 mM stock solutions in DMSO. 100μ/well of these dilutions were added to the 100 μl of media currently on the cell plates. Medium containing 0.6% DMSO was added to control wells. Compounds diluted in DMEM were added to all cell lines. The final concentration of DMSO in all wells was 0.3%. Cells were incubated at 37° C., 10% CO2 for 3 days. Medium was removed by aspiration. Cell biomass was estimated by staining cells with […] per well methylene blue (Sigma M9140, 0.5% in 50:50 ethanol:water), and incubation at room temperature for at least 30 minutes. Stain was removed, and the plates rinsed under a gentle stream of water, and air-dried. To release stain from the cells 100 μl of solubilization solution was added (1% N-lauroyl sarcosine, Sodium salt, Sigma L5125, in PBS), and plates were shaken gently for about 30 minutes. Optical density at 620 nm was measured on a microplate reader. Percent inhibition of cell growth was calculated relative to vehicle treated control wells. Concentration of compound that inhibits 50% of cell growth (IC50) was interpolated using nonlinear regression (Levenberg-Marquardt) and the equation, y=Vmax*(1-(x/(K+x)))+Y2, where “K” was equal to the IC50. In Table 1, +=10−>30 uM; ++=1−10 uM: +++=<1 uM.

[2] = tested on: colon (HCT116) tumor cell line; experiment: Methylene Blue Growth Inhibition Assay, HCT116; format: cell-based; settings: Homo sapiens, HCT-116, 72 h; Cell Line HCT116, 3 days; read-out: MeB IC50
Method: as §1

[3] = tested on: Normal Human foreskin fibroblasts (HFF); experiment: Methylene Blue Growth Inhibition Assay, HFF; format: cell-based; settings: 72 h, Cell Line HFF, 3 days, read-out: MeB IC50
Method: as §1

[4] = tested on: breast tumor (MCF7) cell line; experiment: Methylene Blue Growth Inhibition Assay, MCF7; format: cell-based; settings: Homo sapiens, 72 h; Cell Line MCF7, 3 days; read-out: MeB IC50
Method: as §1

[5] = tested on: prostate (PC3) tumor cell line; experiment: Methylene Blue Growth Inhibition Assay, PC3; format: cell-based; settings: Homo sapiens, 72 h; Cell Line PC3, 3 days; read-out: MeB IC50
Method: as §1

[6] = tested on: colon (RKO) tumor cell line; experiment: Methylene Blue Growth Inhibition Assay, RKO; format: cell-based; settings: Homo sapiens, 72 h, 3 days, read-out: MeB IC50
Method: as §1

T1 sequence (P53350 21-346): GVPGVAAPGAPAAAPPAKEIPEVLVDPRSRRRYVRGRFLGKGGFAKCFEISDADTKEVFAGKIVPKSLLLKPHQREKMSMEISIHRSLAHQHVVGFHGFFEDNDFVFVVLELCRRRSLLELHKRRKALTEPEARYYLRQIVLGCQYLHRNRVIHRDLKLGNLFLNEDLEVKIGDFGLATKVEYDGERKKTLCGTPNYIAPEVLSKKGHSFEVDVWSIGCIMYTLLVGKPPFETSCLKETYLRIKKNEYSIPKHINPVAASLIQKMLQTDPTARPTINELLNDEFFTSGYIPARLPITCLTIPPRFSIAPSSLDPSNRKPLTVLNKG

| IC50 (PLK1 kinase domain) [µM] | IC50 [1] [µM] | IC50 [2] [µM] | IC50 [4] [µM] | IC50 [5] [µM] | IC50 [6] [µM] | Structure (SMILES) | IC50 [3] [µM] |
| --- | --- | --- | --- | --- | --- | --- | --- |
| < 0.1 | > 10 | > 10 | > 10 | > 10 | > 10 | Cc1ccccc1COc1cc(-n2cnc3cc(Cl)ccc32)sc1C(=O)O [Example 34, 5-(5-Chloro-1H-benzimidazol-1-yl)-3-[(2-methylbenzyl)oxy]thiophene-2-carboxylic acid] | > 10 |
| < 0.1 | 1 to 10 | 1 to 10 | 1 to 10 | > 10 | 1 to 10 | Cc1ccccc1COc1cc(-n2cnc3ccc(Cl)cc32)sc1C(N)=O [Example 61] | > 10 |
| < 0.1 | < 1 | < 1 | < 1 | > 10 | < 1 | NC(=O)c1sc(-n2cnc3ccc(Br)cc32)cc1OCc1ccccc1C(F)(F)F [Example 62, 5-(6-Bromo-1H-benzimidazol-1-yl)-3-{[2-(trifluoromethyl)benzyl]-oxy}thiophene-2-carboxamide] | 1 to 10 |
| < 0.1 | > 10 | > 10 | > 10 | > 10 | > 10 | O=C(O)c1sc(-n2cnc3ccc(Cl)cc32)cc1OCc1ccc(F)cc1Cl [Example 70, 5-(6-Chloro-1H-benzimidazol-1-yl)-3-[(2-Chloro-4-fluorobenzyl)oxy]-thiophene-2-carboxylic acid] | > 10 |
| – | 1 to 10 | 1 to 10 | 1 to 10 | 1 to 10 | 1 to 10 | COc1cc2ncn(-c3cc(OCC4CCCCC4)c(C(N)=O)s3)c2cc1OC [Example 111, 3-(Cyclohexylmethoxy)-5-(5,6-dimethoxy-1H-benzimidazol-1-yl)thiophene-2-carboxamide] | > 10 |
| – | > 10 | > 10 | > 10 | > 10 | > 10 | COc1cc2ncn(-c3cc(OCc4ccccc4C(F)(F)F)c(-c4nnn[nH]4)s3)c2cc1OC [Example 147, 5,6-Dimethoxy-1-(5-(1H-tetraazol-5-yl)-4-{[2-(trifluoromethyl)-benzyl]oxy}thien-2-yl)-1H-benzimidazole] | > 10 |

The remaining lines, values behind:

| Structure (SMILES) | IC50 (PLK1 kinase domain) [µM] | IC50 [1] [µM] | IC50 [2] [µM] | IC50 [4] [µM] | IC50 [5] [µM] | IC50 [6] [µM] | IC50 [3] [µM] |
| --- | --- | --- | --- | --- | --- | --- | --- |
| Cc1ccccc1COc1cc(-n2cnc3ccc(Cl)cc32)sc1C(=O)O [Example 35, 5-(6-Chloro-1H-benzimidazol-1-yl)-3-[(2-methylbenzyl)oxy]thiophene-2-carboxylic acid] | < 0.1 | > 10 | > 10 | > 10 | > 10 | > 10 | > 10 |
| CC(=O)c1sc(-n2cnc3ccc(Cl)cc32)cc1OCc1ccccc1C [Example 39, 1-{5-(6-Chloro-1H-benzimidazol-1-yl)-3-[(2-methylbenzyl)oxy]thien-2-yl}ethanone] | 0.1 to 10 | > 10 | > 10 | > 10 | > 10 | > 10 | > 10 |
| COc1cc2ncn(-c3cc(OCc4ccccc4C(F)(F)F)c(C(N)=O)s3)c2cc1OC [Example 63, 5-(5,6-Dimethoxy-1H-benzimidazol-1-yl)-3-{[2-(trifluoromethyl)-benzyl]oxy}thiophene-2-carboxamide] | < 0.1 | < 1 | < 1 | < 1 | 1 to 10 | < 1 | 1 to 10 |
| COc1cc2ncn(-c3cc(OCc4c(Cl)cccc4Cl)c(C(N)=O)s3)c2cc1OC [Example 64, 3-[(2,6-Dichlorobenzyl)oxy]-5-(5,6-dimethoxy-1H-benzimidazol-1-yl)thiophene-2-carboxamide] | < 0.1 | < 1 | 1 to 10 | 1 to 10 | > 10 | 1 to 10 | > 10 |
| COc1cc2ncn(-c3cc(OCc4ccccc4Br)c(C(N)=O)s3)c2cc1OC [Example 65, 3-[(2-Bromobenzyl)oxy]-5-(5,6-dimethoxy-1H-benzimidazol-1-yl)thiophene-2-carboxamide] | < 0.1 | < 1 | < 1 | < 1 | > 10 | < 1 | > 10 |
| Cc1ccccc1COc1cc(-n2cnc3cc(Cl)c(Cl)cc32)sc1C(=O)O [Example 66, 5-(5,6-Dichloro-1H-benzimidazol-1-yl)-3-[(2-methylbenzyl)oxy]-thiophene-2-carboxylic acid] | < 0.1 | > 10 | > 10 | > 10 | > 10 | > 10 | > 10 |
| COc1cc2ncn(-c3cc(OCc4ccccc4C(F)(F)F)c(C(=O)O)s3)c2cc1OC [Example 75] | – | > 10 | 1 to 10 | > 10 | > 10 | > 10 | > 10 |
| COc1cc2ncn(-c3cc(OCCc4ccccc4)c(C(N)=O)s3)c2cc1OC [Example 114, 5-(5,6-Dimethoxy-1H-benzimidazol-1-yl)-3-(2-phenylethoxy)-thiophene-2-carboxamide] | – | > 10 | > 10 | > 10 | > 10 | > 10 | > 10 |
| COc1cc2ncn(-c3cc(OCCCc4ccccc4)c(C(N)=O)s3)c2cc1OC [Example 115, 5-(5,6-Dimethoxy-1H-benzimidazol-1-yl)-3-(3-phenylpropoxy)thiophene-2-carboxamide] | – | 1 to 10 | 1 to 10 | 1 to 10 | > 10 | 1 to 10 | > 10 |
| NC(=O)c1sc(-n2cnc3ccccc32)cc1OCc1ccccc1C(F)(F)F [Example 116, 5-(1H-Benzimidazol-1-yl)-3-{[2-(trifluoromethyl)benzyl]oxy}thiophene-2-carboxamide] | – | < 1 | 1 to 10 | < 1 | > 10 | < 1 | 1 to 10 |
